Results from PMC10112504, “Novel 4-thiophenyl-pyrazole, pyridine, and pyrimidine derivatives as potential antitumor candidates targeting both EGFR and VEGFR-2; design, synthesis, biological evaluations, and in silico studies” (RSC Advances, 2023).

What was measured:
A. flavus = assay: Antifungal activity, inhibition zone approach; format: cell-based, Aspergillus flavus; details: for A. flavus Diameter of inhibition zone (mm): Fungi; for antimicrobial activity with A. flavus, in words: authors' grading of Table 2 values, key not given; for A. flavus % Activity index: ketoconazole = 100
EGFR = EGFR (Homo sapiens, UniProt P00533); assay: EGFR inhibitory activity, homogeneous luminescence release assay; format: biochemical; details: reference erlotinib; read-out: EGFR inhibition IC50
Sequence of EGFR (P00533 25-1210): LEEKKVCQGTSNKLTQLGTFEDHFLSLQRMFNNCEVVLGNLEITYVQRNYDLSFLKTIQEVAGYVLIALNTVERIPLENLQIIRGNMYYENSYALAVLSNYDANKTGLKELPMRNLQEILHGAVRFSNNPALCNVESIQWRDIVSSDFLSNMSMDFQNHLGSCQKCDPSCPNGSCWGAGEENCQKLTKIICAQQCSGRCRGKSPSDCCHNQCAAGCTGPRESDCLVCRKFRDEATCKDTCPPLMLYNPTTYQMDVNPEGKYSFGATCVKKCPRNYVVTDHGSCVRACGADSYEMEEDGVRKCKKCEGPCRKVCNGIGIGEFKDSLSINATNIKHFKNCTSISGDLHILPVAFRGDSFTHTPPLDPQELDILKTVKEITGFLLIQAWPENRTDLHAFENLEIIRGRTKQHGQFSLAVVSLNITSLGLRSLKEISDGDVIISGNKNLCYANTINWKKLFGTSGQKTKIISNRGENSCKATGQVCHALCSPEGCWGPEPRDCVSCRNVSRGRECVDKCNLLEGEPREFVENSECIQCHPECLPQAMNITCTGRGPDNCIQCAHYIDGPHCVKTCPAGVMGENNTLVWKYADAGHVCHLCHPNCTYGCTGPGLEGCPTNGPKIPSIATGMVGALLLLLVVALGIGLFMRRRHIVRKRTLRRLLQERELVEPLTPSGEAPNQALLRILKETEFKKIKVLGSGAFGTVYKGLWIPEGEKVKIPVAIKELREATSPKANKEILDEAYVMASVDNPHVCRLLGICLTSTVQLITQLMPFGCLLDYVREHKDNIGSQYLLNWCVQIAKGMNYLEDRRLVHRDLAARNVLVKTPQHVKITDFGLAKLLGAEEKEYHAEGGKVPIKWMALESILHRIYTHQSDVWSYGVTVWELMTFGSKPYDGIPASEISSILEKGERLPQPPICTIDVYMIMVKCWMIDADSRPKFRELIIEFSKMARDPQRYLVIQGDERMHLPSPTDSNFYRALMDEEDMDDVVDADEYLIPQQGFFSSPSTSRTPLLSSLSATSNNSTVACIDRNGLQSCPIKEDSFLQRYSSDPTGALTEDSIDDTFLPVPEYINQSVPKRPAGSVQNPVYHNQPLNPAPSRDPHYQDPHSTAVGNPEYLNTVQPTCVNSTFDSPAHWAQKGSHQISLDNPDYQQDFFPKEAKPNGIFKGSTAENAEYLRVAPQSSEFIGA

MCF-7 = assay: Anti-proliferative activity, SRB colorimetric assay; format: cell-based; details: for IC50: Homo sapiens, MCF7, MCF-7 cancer cell line, SRB assay, read-out: Cell lines (IC50 μM) MCF-7; for anti-proliferative activity against MCF-7, in words: authors' grading of Table 1 values, key not given
E. coli = assay: Antibacterial activity, inhibition zone approach; format: cell-based, Escherichia coli; details: for E. coli Diameter of inhibition zone (mm): Gram-negative bacteria; for antimicrobial activity with E. coli, in words: authors' grading of Table 2 values, key not given; for E. coli % Activity index: gentamicin = 100
C. albicans = assay: Antifungal activity, inhibition zone approach; format: cell-based, Candida albicans; details: for C. albicans Diameter of inhibition zone (mm): Fungi; for antimicrobial activity with C. albicans, in words: authors' grading of Table 2 values, key not given; for C. albicans % Activity index: ketoconazole = 100
B. subtilis = assay: Antibacterial activity, inhibition zone approach; format: cell-based, Bacillus subtilis; details: for B. subtilis Diameter of inhibition zone (mm): Gram-positive bacteria; for antimicrobial activity with B. subtilis, in words: authors' grading of Table 2 values, key not given; for B. subtilis % Activity index: gentamicin = 100
S. aureus = assay: Antibacterial activity, inhibition zone approach; format: cell-based, Staphylococcus aureus; details: for S. aureus Diameter of inhibition zone (mm): Gram-positive bacteria; for antimicrobial activity with S. aureus, in words: authors' grading of Table 2 values, key not given; for S. aureus % Activity index: gentamicin = 100
VEGFR-2 = VEGFR-2 (Homo sapiens, UniProt P35968); assay: VEGFR-2 inhibitory activity, homogeneous luminescence release assay; format: biochemical; details: reference sorafenib; read-out: VEGFR-2 inhibition IC50
Sequence of VEGFR-2 (P35968 20-1356): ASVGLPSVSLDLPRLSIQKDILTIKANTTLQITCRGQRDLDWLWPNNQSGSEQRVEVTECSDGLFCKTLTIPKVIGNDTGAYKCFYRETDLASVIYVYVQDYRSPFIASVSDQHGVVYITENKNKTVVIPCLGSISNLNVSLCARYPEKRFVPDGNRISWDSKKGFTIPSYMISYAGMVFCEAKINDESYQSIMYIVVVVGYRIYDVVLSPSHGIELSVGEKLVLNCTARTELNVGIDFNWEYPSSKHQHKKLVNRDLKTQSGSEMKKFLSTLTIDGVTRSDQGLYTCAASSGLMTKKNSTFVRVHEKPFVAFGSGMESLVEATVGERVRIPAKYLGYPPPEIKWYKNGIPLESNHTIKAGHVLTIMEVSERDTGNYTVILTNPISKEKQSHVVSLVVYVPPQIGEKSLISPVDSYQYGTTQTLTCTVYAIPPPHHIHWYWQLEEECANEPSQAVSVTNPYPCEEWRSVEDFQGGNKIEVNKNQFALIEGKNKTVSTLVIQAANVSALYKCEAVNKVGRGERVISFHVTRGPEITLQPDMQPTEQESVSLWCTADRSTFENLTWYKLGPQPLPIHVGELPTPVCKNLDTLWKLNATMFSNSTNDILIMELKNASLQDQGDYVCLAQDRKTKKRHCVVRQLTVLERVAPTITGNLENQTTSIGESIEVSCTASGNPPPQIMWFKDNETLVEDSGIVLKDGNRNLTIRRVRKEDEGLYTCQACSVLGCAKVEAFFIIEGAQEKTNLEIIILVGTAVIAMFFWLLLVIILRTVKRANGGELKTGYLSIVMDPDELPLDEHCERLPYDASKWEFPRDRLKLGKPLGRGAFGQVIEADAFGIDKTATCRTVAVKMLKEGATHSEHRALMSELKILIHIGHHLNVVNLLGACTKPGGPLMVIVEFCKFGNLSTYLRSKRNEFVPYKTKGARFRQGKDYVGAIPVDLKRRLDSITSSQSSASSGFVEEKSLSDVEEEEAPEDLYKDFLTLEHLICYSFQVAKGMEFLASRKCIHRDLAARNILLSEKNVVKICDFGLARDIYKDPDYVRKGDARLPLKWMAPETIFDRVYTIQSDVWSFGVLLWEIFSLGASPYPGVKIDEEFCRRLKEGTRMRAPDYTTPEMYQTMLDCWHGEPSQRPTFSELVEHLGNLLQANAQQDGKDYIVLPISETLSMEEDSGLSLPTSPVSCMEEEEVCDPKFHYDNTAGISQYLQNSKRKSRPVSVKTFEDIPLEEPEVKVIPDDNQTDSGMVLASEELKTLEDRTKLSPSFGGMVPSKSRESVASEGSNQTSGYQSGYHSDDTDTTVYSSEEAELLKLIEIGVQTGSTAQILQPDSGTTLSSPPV
Source text: […]. Briefly, these μM inhibitory concentrations recommend greatly the proposed rationale design for the investigated compounds to act as promising dual EGFR/VEGFR-2 inhibitors.

HepG-2 = assay: Anti-proliferative activity, SRB colorimetric assay; format: cell-based; details: for IC50: Homo sapiens, HepG2, HepG-2 cancer cell line, SRB assay, read-out: Cell lines (IC50 μM) HepG-2; for anti-proliferative activity against HepG-2, in words: authors' grading of Table 1 values, key not given
P. aeuroginosa = assay: Antibacterial activity, inhibition zone approach; format: cell-based, Pseudomonas aeuroginosa; details: for P. aeuroginosa Diameter of inhibition zone (mm): Gram-negative bacteria; for antimicrobial activity with P. aeuroginosa, in words: authors' grading of Table 2 values, key not given; for P. aeuroginosa % Activity index: gentamicin = 100

Compound | A. flavus Diameter of inhibition zone (mm) (A. flavus) | antimicrobial activity with A. flavus, in words (A. flavus) | A. flavus % Activity index (A. flavus) [%] | IC50 (MCF-7) [µM] | anti-proliferative activity against MCF-7, in words (MCF-7) | E. coli Diameter of inhibition zone (mm) (E. coli) | antimicrobial activity with E. coli, in words (E. coli) | E. coli % Activity index (E. coli) [%] | C. albicans Diameter of inhibition zone (mm) (C. albicans) | antimicrobial activity with C. albicans, in words (C. albicans) | C. albicans % Activity index (C. albicans) [%] | B. subtilis Diameter of inhibition zone (mm) (B. subtilis) | B. subtilis % Activity index (B. subtilis) [%] | S. aureus Diameter of inhibition zone (mm) (S. aureus) | S. aureus % Activity index (S. aureus) [%] | IC50 (HepG-2) [µM] | anti-proliferative activity against HepG-2, in words (HepG-2) | melting point [°C] | P. aeuroginosa Diameter of inhibition zone (mm) (P. aeuroginosa) | P. aeuroginosa % Activity index (P. aeuroginosa) [%] | further results
N#Cc1c(-c2cccs2)cc(-c2ccc(O)cc2)nc1N [2a, 2-Amino-6-(4-hydroxyphenyl)-4-(thiophen-2-yl)nicotinonitrile] | 12 | moderate | 46.1 | 9.59 ± 0.8 | very strong | 9 | moderate | 42.8 | 18 | strong | 64.3 | 15 | 68.2 | 10 | 55.5 | 8.42 ± 0.6 | very strong | 260 | 12 | 63.1 | IC50 (EGFR): 0.209 µM; antimicrobial activity with B. subtilis, in words (B. subtilis): strong; antimicrobial activity with S. aureus, in words (S. aureus): moderate; IC50 (VEGFR-2): 0.195 µM; antimicrobial activity with P. aeuroginosa, in words (P. aeuroginosa): strong
N#Cc1c(N)c2c(-c3cccs3)cc(-c3ccc(O)cc3)nc2[nH]c1=O [6a, 4-amino-7-(4-hydroxyphenyl)-2-oxo-5-(thiophen-2-yl)-1,2-dihydro-1,8-naphthyridine-3-carbonitrile] | 8 |  | 30.8 | 19.1 ± 1.6 | strong | 4 |  | 19.0 | 12 |  | 42.8 | 9 | 40.9 | 5 | 27.8 | 16.2 ± 1.3 | strong | 260 | 7 | 36.8 | IC50 (EGFR): 0.326 µM
Oc1ccc(C2=NNC(c3cccs3)C2)cc1 (centres unmarked) [7a, 4-(5-(thiophen-2-yl)-4,5-dihydro-1H-pyrazol-3-yl)phenol] | 18 | very strong | 69.2 | 3.54 ± 0.2 | very strong | 12 | very strong | 57.1 | 23 | very strong | 82.1 | 19 | 86.4 | 15 | 83.3 | 8.13 ± 0.6 | very strong | 100 to 102 | 17 | 89.5 | IC50 (EGFR): 0.266 µM; antimicrobial activity with B. subtilis, in words (B. subtilis): very strong; antimicrobial activity with S. aureus, in words (S. aureus): very strong; IC50 (VEGFR-2): 0.509 µM; antimicrobial activity with P. aeuroginosa, in words (P. aeuroginosa): very strong
CCOC(=O)CN1N=C(c2ccc(O)cc2)CC1c1cccs1 (centres unmarked) [15a, ethyl 2-(3-(4-hydroxyphenyl)-5-(thiophen-2-yl)-4,5-dihydro-1H-pyrazol-1-yl)acetate] | 15 | moderate | 57.7 | 9.48 ± 0.7 | very strong | 9 | moderate | 42.8 | 18 | strong | 64.3 | 15 | 68.2 | 10 | 55.5 | 21.4 ± 1.5 | moderate | 65 | 14 | 73.7 | IC50 (EGFR): 0.894 µM; antimicrobial activity with B. subtilis, in words (B. subtilis): strong; antimicrobial activity with S. aureus, in words (S. aureus): moderate; IC50 (VEGFR-2): 1.14 µM; antimicrobial activity with P. aeuroginosa, in words (P. aeuroginosa): strong
O=C(O)CSC(=S)N1N=C(c2ccc(O)cc2)CC1c1cccs1 (centres unmarked) [19a, 2-((3-(4-Hydroxyphenyl)-5-(thiophen-2-yl)-4,5-dihydro-1H-pyrazole-1-carbonothioyl)thio)acetic acid] | 13 | moderate | 50.0 | 14.7 ± 1.2 | strong | 9 | moderate | 42.8 | 16 | moderate | 57.1 | 14 | 63.6 | 10 | 55.5 | 28.2 ± 1.9 | moderate | 223 to 225 | 12 | 63.1 | antimicrobial activity with B. subtilis, in words (B. subtilis): moderate; antimicrobial activity with S. aureus, in words (S. aureus): moderate; antimicrobial activity with P. aeuroginosa, in words (P. aeuroginosa): moderate
O=C(CCl)SC(=S)N1N=C(c2ccc(O)cc2)CC1c1cccs1 (centres unmarked) [20a, 2-Chloroacetic-3-(4-hydroxyphenyl)-5-(thiophen-2-yl)-4,5-dihydro-1H-pyrazole-1-carbothioic thioanhydride] | 7 | weak | 26.9 | 56.2 ± 3.3 | weak |  | weak |  | 9 | weak | 32.1 | 6 | 27.3 | 3 | 16.7 | 67.4 ± 3.5 | weak | 265 | 4 | 21.0 | antimicrobial activity with B. subtilis, in words (B. subtilis): weak; antimicrobial activity with S. aureus, in words (S. aureus): weak; antimicrobial activity with P. aeuroginosa, in words (P. aeuroginosa): weak
